Like-named read-outs stand apart in the source and are kept apart here.
Legend:
GSK-3β (AA 1–420) = biological target: T1, GSK-3β (AA 1–420) (Homo sapiens, UniProt P49841); assay: GSK-3 inhibition assay (coupled enzyme system); assay type: biochemical; details: read-out: GSK3 Inhibitory Activity (Ki class)
T1 construct: GSK-3β (AA 1–420)
Procedure: Final substrate concentrations in the assay were 20 μM ATP (Sigma Chemicals, St Louis, Mo.) and 300 μM peptide (HSSPHQS(PO3H2)EDEEE, American Peptide, Sunnyvale, Calif.). Reactions were carried out at 30° C. and 20 nM GSK-3β. Final concentrations of the components of the coupled enzyme system were 2.5 mM phosphoenolpyruvate, 300 μM NADH, 30 μg/ml pyruvate kinase and 10 μg/ml lactate dehydrogenase.
An assay stock buffer solution was prepared containing all of the reagents listed above with the exception of ATP and the test compound of interest. The assay stock buffer'solution (175 μl) was incubated in a 96 well plate with 5 μl of the test compound of interest at final concentrations spanning 0.002 μM to 30 μM at 30° C. for 10 min. […] The reaction was initiated by the addition of 20 μl of ATP (final concentration 20 μM). Rates of reaction were obtained using a Molecular Devices Spectramax plate reader (Sunnyvale, Calif.) over 10 min at 30° C. The Ki values were determined from the rate data as a function of inhibitor concentration.
The compound numbers correspond to the compound numbers in Table 1.

ERK2 = ERK2 (Homo sapiens, UniProt P28482); assay: ERK2 inhibition assay (spectrophotometric coupled-enzyme assay); assay type: biochemical
Procedure: The IC50 was evaluated from the rate data as a function of inhibitor concentration. […] The compound numbers correspond to the compound numbers in Table 1.

[1] = read-out: ERK2 Inhibitory Activity (Ki class D-F)

T1 sequence (P49841 whole entry, species assumed, the tested form may be a part): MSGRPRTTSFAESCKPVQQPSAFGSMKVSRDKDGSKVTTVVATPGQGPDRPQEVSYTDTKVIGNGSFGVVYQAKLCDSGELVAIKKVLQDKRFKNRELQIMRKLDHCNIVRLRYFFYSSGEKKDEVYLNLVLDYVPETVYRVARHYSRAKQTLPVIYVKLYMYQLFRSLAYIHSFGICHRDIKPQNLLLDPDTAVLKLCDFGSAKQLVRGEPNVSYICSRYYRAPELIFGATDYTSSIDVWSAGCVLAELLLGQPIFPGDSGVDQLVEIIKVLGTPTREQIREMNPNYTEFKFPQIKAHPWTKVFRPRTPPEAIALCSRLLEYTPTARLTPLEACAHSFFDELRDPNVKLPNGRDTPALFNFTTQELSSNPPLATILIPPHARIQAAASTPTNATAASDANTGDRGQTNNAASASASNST
Sequence of ERK2 (P28482 whole entry): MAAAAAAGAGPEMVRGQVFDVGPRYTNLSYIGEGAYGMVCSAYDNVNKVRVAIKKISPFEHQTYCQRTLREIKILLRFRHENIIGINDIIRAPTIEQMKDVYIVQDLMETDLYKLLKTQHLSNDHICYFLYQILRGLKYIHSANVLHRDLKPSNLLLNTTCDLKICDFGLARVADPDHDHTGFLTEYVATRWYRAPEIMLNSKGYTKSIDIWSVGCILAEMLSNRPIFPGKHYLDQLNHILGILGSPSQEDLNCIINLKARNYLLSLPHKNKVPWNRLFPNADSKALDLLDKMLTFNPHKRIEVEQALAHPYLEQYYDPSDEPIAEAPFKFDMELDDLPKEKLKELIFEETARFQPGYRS

Row | Compound | Ki (GSK-3β (AA 1–420)) [nM] | Ki (ERK2; [1]) [nM] | Ki (ERK2; ERK2 Inhibitory Activity (Ki class D-F)) [nM]
1 | Cc1cccc(C(CO)NC(=O)c2cc(-c3nc(NC(C)CO)ncc3C)c[nH]2)c1 (stereo not shown) [III-a-222, 4-[2-(2-Hydroxy-1-methyl-ethylamino)-5-methyl-pyrimidin-4-yl]-1H-pyrrole-2-carboxylic acid (2-hydroxy-1-m-tolyl-ethyl)-amide] | 100 to 1000 | < 100 | 
2 | Cc1cnc(Nc2cccc(F)c2)nc1-c1c[nH]c(C(=O)NC(CO)c2cccc(C(F)(F)F)c2)c1 (stereo not shown) [III-a-199, 4-[2-(3-Fluoro-phenylamino)-5-methyl-pyrimidin-4-yl]-1H-pyrrole-2-carboxylic acid [2-hydroxy-1-(3-trifluoromethyl-phenyl)-ethyl]-amide] | < 100 | < 100 | 
3 | Cc1cnc(Nc2cccc(C)c2C)nc1-c1c[nH]c(C(=O)NC(CO)c2ccccc2)c1 (stereo not shown) [III-a-194, 4-[2-(2,3-Dimethyl-phenylamino)-5-methyl-pyrimidin-4-yl]-1H-pyrrole-2-carboxylic acid (2-hydroxy-1-phenyl-ethyl)-amide] | < 100 | < 100 | 
4 | Cc1cnc(NCC(C)C)nc1-c1c[nH]c(C(=O)NC(CO)c2ccccc2)c1 (stereo not shown) [III-a-158, 4-(2-Isobutylamino-5-methyl-pyrimidin-4-yl)-1H-pyrrole-2-carboxylic acid (2-hydroxy-1-phenyl-ethyl)-amide] | < 100 | < 100 | 
5 | CCNc1ncc(C)c(-c2c[nH]c(C(=O)NC(C(=O)OC)c3ccccc3)c2)n1 (stereo not shown) [III-a-184, {[4-(2-Ethylamino-5-methyl-pyrimidin-4-yl)-1H-pyrrole-2-carbonyl]-amino}-phenyl-acetic acid methyl ester] | > 1000 | 100 to 1000 | 
6 | Cc1ccc(Nc2ncc(C)c(-c3c[nH]c(C(=O)NC(CO)c4ccccc4)c3)n2)cc1C (stereo not shown) [III-a-151, 4-[2-(3,4-Dimethyl-phenylamino)-5-methyl-pyrimidin-4-yl]-1H-pyrrole-2-carboxylic acid (2-hydroxy-1-phenyl-ethyl)-amide] | < 100 | < 100 | 
7 | CCC(CO)Nc1ncc(C)c(-c2c[nH]c(C(=O)NC(CO)c3cccc(Cl)c3)c2)n1 (stereo not shown) [III-a-232, 4-[2-(1-Hydroxymethyl-propylamino)-5-methyl-pyrimidin-4-yl]-1H-pyrrole-2-carboxylic acid (1-(3-chloro-phenyl)-2-hydroxy-ethyl]-amide] | 100 to 1000 | < 100 | 
8 | CCNc1ncc(C)c(-c2c[nH]c(C(=O)NC(CO)c3cccc(C(F)(F)F)c3)c2)n1 (stereo not shown) [III-a-198, 4-(2-Ethylamino-5-methyl-pyrimidin-4-yl)-1H-pyrrole-2-carboxylic acid [2-hydroxy-1-(3-trifluoromethyl-phenyl)-ethyl]-amide] | > 1000 | < 100 | 
9 | Cc1ccc(C(CO)NC(=O)c2cc(-c3nc(Nc4ccccc4)ncc3C)c[nH]2)cc1F (stereo not shown) [III-a-145, 4-(5-Methyl-2-phenylamino-pyrimidin-4-yl)-1H-pyrrole-2-carboxylic acid [1-(3-fluoro-4-methyl-phenyl)-2-hydroxy-ethyl]-amide] | < 100 | < 100 | 
10 | Cc1cnc(NOC(C)C)nc1-c1c[nH]c(C(=O)NC(CO)c2ccccc2)c1 (stereo not shown) [III-a-207, 4-(2-Isopropoxyamino-5-methyl-pyrimidin-4-yl)-1H-pyrrole-2-carboxylic acid (2-hydroxy-1-phenyl-ethyl)-amide] | 100 to 1000 | < 100 | 
11 | Cc1ccc(C(CO)NC(=O)c2cc(-c3nc(Nc4cccc(F)c4)ncc3C)c[nH]2)cc1F (stereo not shown) [III-a-147, 4-[2-(3-Fluoro-phenylamino)-5-methyl-pyrimidin-4-yl]-1H-pyrrole-2-carboxylic acid [1-(3-fluoro-4-methyl-phenyl)-2-hydroxy-ethyl]-amide] | < 100 | < 100 | 
12 | Cc1cnc(NCC2CCCO2)nc1-c1c[nH]c(C(=O)NC(CO)c2ccccc2)c1 (stereo not shown) [III-a-217, 4-{5-Methyl-2-((tetrahydro-furan-2-ylmethyl)-amino]-pyrimidin-4-yl}-1H-pyrrole-2-carboxylic acid (2-hydroxy-1-phenyl-ethyl)-amide] | < 100 | < 100 | 
13 | CCNc1ncc(C)c(-c2c[nH]c(C(=O)NC(CCO)c3ccccc3)c2)n1 (stereo not shown) [III-a-172, 4-(2-Ethylamino-5-methyl-pyrimidin-4-yl)-1H-pyrrole-2-carboxylic acid (3-hydroxy-1-phenyl-propyl)-amide] | > 1000 | > 1000 | 
14 | CCNc1ncc(C)c(-c2c[nH]c(C(=O)NC(CO)c3cccnc3)c2)n1 (stereo not shown) [III-a-188, 4-(2-Ethylamino-5-methyl-pyrimidin-4-yl)-1H-pyrrole-2-carboxylic acid (2-hydroxy-1-pyridin-3-yl-ethyl)-amide] | > 1000 | 100 to 1000 | 
15 | Cc1cnc(NC(CO)c2ccc(F)c(Cl)c2)nc1-c1c[nH]c(C(=O)NC(CO)c2ccccc2)c1 (stereo not shown) [III-a-230, 4-{2-[1-(3-Chloro-4-fluoro-phenyl)-2-hydroxy-ethylamino]-5-methyl-pyrimidin-4-yl}-1H-pyrrole-2-carboxylic acid (2-hydroxy-1-phenyl-ethyl)-amide] | 100 to 1000 | < 100 | 
16 | CCNc1ncc(C)c(-c2c[nH]c(C(=O)NC(CO)c3cccc(F)c3)c2)n1 (stereo not shown) [III-a-191, 4-(2-Ethylamino-5-methyl-pyrimidin-4-yl)-1H-pyrrole-2-carboxylic acid [1-(3-fluoro-phenyl)-2-hydroxy-ethyl]-amide] | 100 to 1000 | < 100 | 
17 | Cc1cnc(NC(CO)c2ccccc2)nc1-c1c[nH]c(C(=O)NC(CO)c2cccc(C(F)(F)F)c2)c1 (stereo not shown) [III-a-201, 4-[2-(2-Hydroxy-1-phenyl-ethylamino)-5-methyl-pyrimidin-4-yl]-1H-pyrrole-2-carboxylic acid [2-hydroxy-1-(3-trifluoromethyl-phenyl)-ethyl)-amide] | 100 to 1000 | < 100 | 
18 | Cc1cccc(C(CO)NC(=O)c2cc(-c3nc(Nc4ccccc4C)ncc3C)c[nH]2)c1 (stereo not shown) [III-a-223, 4-(5-Methyl-2-o-tolylamino-pyrimidin-4-yl)-1H-pyrrole-2-carboxylic acid (2-hydroxy-1-m-tolyl-ethyl)-amide] | < 100 | < 100 | 
19 | Cc1ccccc1Nc1ncc(C)c(-c2c[nH]c(C(=O)NC(CO)c3cccc(Cl)c3)c2)n1 (stereo not shown) [III-a-224, 4-(5-Methyl-2-o-tolylamino-pyrimidin-4-yl)-1H-pyrrole-2-carboxylic acid [1-(3-chloro-phenyl)-2-hydroxy-ethyl]-amide] | < 100 |  | 
20 | Cc1cnc(Nc2ccccc2Cl)nc1-c1c[nH]c(C(=O)NC(CO)c2cccc(C(F)(F)F)c2)c1 (stereo not shown) [III-a-200, 4-[2-(2-Chloro-phenylamino)-5-methyl-pyrimidin-4-yl]-1H-pyrrole-2-carboxylic acid [2-hydroxy-1-(3-trifluoromethyl-phenyl)-ethyl]-amide] | > 1000 | < 100 | 
21 | Cc1cnc(Nc2cccnc2)nc1-c1c[nH]c(C(=O)NC(CO)c2ccccc2)c1 (stereo not shown) [III-a-215, 4-[5-Methyl-2-(pyridin-3-ylamino)-pyrimidin-4-yl]-1H-pyrrole-2-carboxylic acid (2-hydroxy-1-phenyl-ethyl)-amide] | < 100 | < 100 | 
22 | Cc1cnc(NC(CO)c2ccccc2)nc1-c1c[nH]c(C(=O)NC(CO)c2ccccc2)c1 (stereo not shown) [III-a-166, 4-[2-(2-Hydroxy-1-phenyl-ethylamino)-5-methyl-pyrimidin-4-yl]-1H-pyrrole-2-carboxylic acid (2-hydroxy-1-phenyl-ethyl)-amide] | > 1000 |  | 100 to 1000
23 | Cc1cnc(NCC(C)O)nc1-c1c[nH]c(C(=O)NC(CO)c2ccccc2)c1 (stereo not shown) [III-a-177, 4-[2-(2-Hydroxy-propylamino)-5-methyl-pyrimidin-4-yl]-1H-pyrrole-2-carboxylic acid (2-hydroxy-1-phenyl-ethyl)-amide] | 100 to 1000 | < 100 | 
24 | Cc1cnc(NC(CO)CC2CC2)nc1-c1c[nH]c(C(=O)NC(CO)c2ccccc2)c1 (stereo not shown) [III-a-193, 4-[2-(2-Cyclopropyl-1-hydroxymethyl-ethylamino)-5-methyl-pyrimidin-4-yl]-1H-pyrrole-2-carboxylic acid (2-hydroxy-1-phenyl-ethyl)-amide] | 100 to 1000 | < 100 | 
25 | CONc1ncc(C)c(-c2c[nH]c(C(=O)NC(CO)c3ccccc3)c2)n1 (stereo not shown) [III-a-206, 4-(2-Methoxyamino-5-methyl-pyrimidin-4-yl)-1H-pyrrole-2-carboxylic acid (2-hydroxy-1-phenyl-ethyl)-amide] | < 100 | < 100 | 
26 | COc1cccc(Nc2ncc(C)c(-c3c[nH]c(C(=O)NC(CO)c4ccccc4)c3)n2)c1 (stereo not shown) [III-a-137, 4-[2-(3-Methoxy-phenylamino)-5-methyl-pyrimidin-4-yl]-1H-pyrrole-2-carboxylic acid (2-hydroxy-1-phenyl-ethyl)-amide] | < 100 |  | 
27 | Cc1cnc(NN2CCOCC2)nc1-c1c[nH]c(C(=O)NC(CO)c2ccccc2)c1 (stereo not shown) [III-a-228, 4-[5-Methyl-2-(morpholin-4-ylamino)-pyrimidin-4-yl]-1H-pyrrole-2-carboxylic acid (2-hydroxy-1-phenyl-ethyl)-amide] | < 100 |  | 
28 | CCN(C(=O)c1cc(-c2ccnc(N)n2)c[nH]1)C(C)C(O)c1ccccc1 (stereo not shown) [III-a-181, 4-(2-Amino-pyrimidin-4-yl)-1H-pyrrole-2-carboxylic acid (2-hydroxy-1-methyl-2-phenyl-ethyl)-ethyl-amide] | > 1000 |  | 
